Laboratory results published in PubChem BioAssay (NCI).
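Where inhibition never reached the appropriate level, the endpoint shown equals the highest concentration tested. Otherwise, values were interpolated linearly from a five-concentration, 48-hour dose response in 96-well plates. GI50: concentration for 50% inhibition of growth. The concentration for full growth arrest is given as TGI.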

Key:
Test in all cases: growth of human tumour cells (NCI), 48 h
[1] = system: ACHN renal
[2] = system: EKVX NSCLC
[3] = system: M14 melanoma
[4] = system: NCI/ADR-RES ovarian
[5] = system: OVCAR-3 ovarian
[6] = system: OVCAR-8 ovarian
[7] = system: SK-MEL-2 melanoma
[8] = system: SK-MEL-5 melanoma
[9] = system: SR leukemia
[10] = system: UACC-257 melanoma

Row | Structure (SMILES) | GI50 [1] | TGI [1] | GI50 [2] | TGI [2] | GI50 [3] | TGI [3] | GI50 [4] | TGI [4] | GI50 [5] | TGI [5] | GI50 [6] | TGI [6] | GI50 [7] | TGI [7] | GI50 [8] | TGI [8] | GI50 [9] | TGI [9] | GI50 [10] | TGI [10]
1 | CC1(C)CC(=O)C2=C(C1)NC(SSC1=C(C#N)C(c3ccccc3)C3=C(CC(C)(C)CC3=O)N1)=C(C#N)C2c1ccccc1 (centres undefined) | 26.1 µg/mL | 46.8 µg/mL | 28.6 µg/mL | 56.2 µg/mL | 22.5 µg/mL | 43.6 µg/mL | 32.9 µg/mL | 65.9 µg/mL | 26.3 µg/mL | 47.8 µg/mL | 31.6 µg/mL | 57.4 µg/mL | 26.5 µg/mL | 49.8 µg/mL | 27.8 µg/mL | 48.7 µg/mL | 26.5 µg/mL | 103 µg/mL | 25.4 µg/mL | 46 µg/mL
2 | O=[N+]([O-])c1ccc(Sc2ncccn2)c([N+](=O)[O-])c1 | 3.41 µM | 11.1 µM | 3.96 µM | 18.7 µM | 5.26 µM | 18.4 µM | 6.55 µM | 20.1 µM | 3.38 µM | 10.3 µM | 4.33 µM | 14 µM | 7.15 µM | 21.5 µM | 10.4 µM | 22.4 µM | 1.2 µM | 17.9 µM | 5.33 µM | 19.1 µM
3 | O=C1CC(=O)N(C2CCCCC2)C(=O)N1c1ccccc1S(=O)(=O)Oc1ccccc1 | – | 36.5 µM | – | > 100 µM | – | > 100 µM | – | > 100 µM | – | > 100 µM | – | > 100 µM | – | > 100 µM | – | > 100 µM | – | > 100 µM | – | > 100 µM
4 | O/N=C1\CCc2cc(-c3nc(C4CCNCC4)[nH]c3-c3ccncc3)ccc21 | > 25 µM | > 25 µM | > 25 µM | > 25 µM | 7.57 µM | > 25 µM | > 25 µM | > 25 µM | > 25 µM | > 25 µM | > 25 µM | > 25 µM | 16 µM | > 25 µM | > 25 µM | > 25 µM | > 25 µM | > 25 µM | 5.17 µM | > 25 µM
5 | COc1cc(O)c(C(=O)/C=C/c2ccccc2)c(OC)c1 | – | 20.8 µM | – | 22.4 µM | – | 84.1 µM | – | 14.4 µM | – | 44.7 µM | – | 10.1 µM | – | 21.1 µM | – | 24.2 µM | – | 6.05 µM | – | 23.6 µM
6 | COc1cc2c3c(n(C)c(=O)c2cc1OC)-c1cc2c(cc1/C3=C\CCCCN)OCO2 | 9.66 µM | 26.3 µM | 18.4 µM | 57.2 µM | 5.55 µM | 19.6 µM | 4.74 µM | 18.1 µM | 16.9 µM | 33.4 µM | 3.77 µM | 14.2 µM | 5.71 µM | 24.1 µM | 13.2 µM | 27.3 µM | 3.58 µM | > 100 µM | 12.5 µM | 35.7 µM
7 | O=C1c2ccccc2-c2c1c1ccccc1c(=O)n2CCO | – | 10.4 µM | – | > 100 µM | – | > 100 µM | – | > 100 µM | – | > 100 µM | – | > 100 µM | – | 87.2 µM | – | 33.1 µM | – | 22.5 µM | – | > 100 µM
8 | COc1cc(-c2cc(C(=O)N3CCN(C(=O)c4ccccc4NCc4ccco4)CC3)nc3cc(-c4ccccc4)nn23)cc(OC)c1OC | 6.97 µM | > 100 µM | 5.5 µM | > 100 µM | 2.9 µM | > 75.4 µM | 1.2 µM | > 31.8 µM | 1.47 µM | 6.27 µM | 4.38 µM | > 100 µM | 2.9 µM | > 79.4 µM | 1.46 µM | > 100 µM | 0.523 µM | > 100 µM | 3.92 µM | > 100 µM
9 | Cc1ccc(S(=O)(=O)N/N=C/C(Br)=C(/Br)C(=O)O)cc1 | – | 8.75 µM | – | 34 µM | – | 18.2 µM | – | 17.9 µM | – | 20.2 µM | – | 9.93 µM | – | 35.1 µM | – | 25.8 µM | – | 1.7 µM | – | 26.8 µM
10 | COC(=O)[C@]12CC[C@@H](C)[C@H](C)[C@@H]1C1=CC[C@@H]3[C@@]4(C)CC(=O)[C@H](O)[C@@]5(C)COC(=C45)C[C@@]3(C)[C@]1(C)CC2 | 18.3 µM | 33.9 µM | 17.4 µM | 34.2 µM | 18.5 µM | 36.9 µM | 18.4 µM | 37.6 µM | 19 µM | 34.8 µM | 19.6 µM | 39.2 µM | 18.9 µM | 37.2 µM | 16.6 µM | 30.2 µM | 20.4 µM | 45.2 µM | 19.2 µM | 33.4 µM
11 | O=S(=O)(c1ccc(NC(=S)N/N=C/c2ccccc2O)cc1)N1CCCCC1 | – | 10.2 µM | – | 76.2 µM | – | 2.78 µM | – | 0.586 µM | – | 6.34 µM | – | 14.9 µM | – | > 100 µM | – | 0.176 µM | – | 3.58 µM | – | 14.5 µM
12 | COc1ccc(-c2cc(-c3ccc(Nc4nc(Nc5ccc(Cl)cc5)nc(Nc5ccc(Cl)cc5)n4)cc3)nc(N)c2C#N)cc1 | 0.803 µM | 2.18 µM | 8.16 µM | > 21.9 µM | 1.97 µM | 4.36 µM | 13.3 µM | > 100 µM | 1.68 µM | 3.18 µM | 2.12 µM | > 51.2 µM | 1.66 µM | 3.2 µM | 1.78 µM | 3.65 µM | 0.485 µM | 3.29 µM | 1.79 µM | 3.63 µM
13 | CCCCCCCCCCCCCCCCCCNC(=O)[C@H]1CSC(c2ccc(OC)c(F)c2)N1 (some centres undefined) | > 36.8 µM | > 52.1 µM | 3.93 µM | 17.2 µM | 1.43 µM | 3.5 µM | 2.52 µM | 6.22 µM | 7.84 µM | > 50.2 µM | 2.56 µM | 11.4 µM | 2.27 µM | 5.48 µM | 2.92 µM | 10.3 µM | 0.641 µM | 2.88 µM | > 19.9 µM | > 44.1 µM
14 | C[C@H]1[C@H](OC(=O)CCC(=O)O)O[C@@H]2O[C@]3(C)CC[C@H]4[C@H](C)CC[C@@H]1[C@@]24OO3 | 0.921 µM | 14.4 µM | 0.443 µM | 18.3 µM | 0.777 µM | 14.8 µM | 0.482 µM | 6.15 µM | 0.415 µM | 15.2 µM | 0.445 µM | > 46.4 µM | 2.86 µM | 59.8 µM | 0.315 µM | 11.3 µM | 0.238 µM | 4.27 µM | 3.36 µM | > 100 µM
15 | COc1cc(C(=O)O)c([N+](=O)[O-])c(OC)c1OC | – | > 100 µM | – | > 100 µM | – | > 100 µM | – | > 100 µM | – | > 100 µM | – | > 100 µM | – | > 100 µM | – | > 100 µM | – | > 100 µM | – | > 100 µM
16 | Nc1cccc2c1C(=O)N(C1CCC(=O)NC1=O)C2=O (centres undefined) | > 100 µM | > 100 µM | > 100 µM | > 100 µM | > 100 µM | > 100 µM | > 100 µM | > 100 µM | > 100 µM | > 100 µM | > 100 µM | > 100 µM | > 100 µM | > 100 µM | > 100 µM | > 100 µM | > 100 µM | > 100 µM | > 100 µM | > 100 µM
17 | O=C1C2CC(Cl)C(SSC3CC4C(=O)N(SC(Cl)(Cl)C(Cl)Cl)C(=O)C4CC3Cl)CC2C(=O)N1SC(Cl)(Cl)C(Cl)Cl (centres undefined) | – | 6.66 µM | – | 15.5 µM | – | 2.88 µM | – | 6.05 µM | – | 5.07 µM | – | 3.5 µM | – | 3.65 µM | – | 4.55 µM | – | 1.21 µM | – | 5.79 µM
18 | COc1ccccc1C(=O)/C=C/c1cc2cccc(OC)c2[nH]c1=O | 0.0557 µM | 2.15 µM | 0.375 µM | 3.17 µM | < 0.0131 µM | 0.3 µM | 0.0194 µM | 13.6 µM | 0.0343 µM | 0.6 µM | 0.0392 µM | 15 µM | 0.656 µM | 4.7 µM | 0.0374 µM | 0.843 µM | – | > 51.3 µM | 1.63 µM | 9.26 µM
19 | NC(N)=NC(CC(=O)O)c1ccccc1 (centres undefined) | – | > 100 µM | – | > 100 µM | – | > 100 µM | – | > 100 µM | – | > 100 µM | – | > 100 µM | – | > 100 µM | – | > 100 µM | – | > 100 µM | – | > 100 µM
20 | O=C1c2cc3c(cc2-c2c1c1cc(Cl)c(Cl)cc1c(=O)n2CCCn1ccnc1)OCO3 | < 0.01 µM | 1.09 µM | 0.0553 µM | > 100 µM | < 0.01 µM | 11.8 µM | < 0.01 µM | 11.6 µM | 0.0425 µM | 18.8 µM | < 0.01 µM | > 100 µM | 0.222 µM | 26.7 µM | < 0.01 µM | 0.0407 µM | < 0.01 µM | 1.67 µM | 0.0122 µM | 1.31 µM
21 | O=C(c1cccs1)c1c(C(F)(F)F)n([O-])c2ccc(C(F)(F)F)cc2[n+]1=O | 0.183 µM | 0.326 µM | 0.241 µM | 0.529 µM | 0.791 µM | 1.87 µM | 0.219 µM | 0.573 µM | 0.258 µM | 0.744 µM | 0.116 µM | 0.479 µM | 0.785 µM | 1.85 µM | 0.483 µM | 0.914 µM | 0.301 µM | 1.28 µM | 1.59 µM | 3.15 µM
22 | CC(Cc1ccc(Cl)cc1Cl)NO (centres undefined) | – | > 100 µM | – | > 100 µM | – | > 100 µM | – | > 100 µM | – | > 100 µM | – | > 100 µM | – | > 100 µM | – | > 100 µM | – | > 100 µM | – | > 100 µM
23 | Nc1nc(N)[n+]([O-])c(N)c1NCO | – | > 100 µM | – | > 100 µM | – | > 100 µM | – | > 100 µM | – | > 100 µM | – | > 100 µM | – | > 100 µM | – | > 100 µM | – | > 100 µM | – | > 100 µM
